From US20230011571A1, “SMALL MOLECULE FURIN INHIBITORS FOR TREATING INFECTIOUS DISEASES” (BP Asset V, Inc., priority 2019, published 2023)

Assays:
Assay type in all cases: cell-based
dengue virus (DENV) = assay: microbe, parasite or virus in culture; conditions: Dengue virus, Vero, 120 h, read-out: Percent viral inhibition DENY
Marburg virus (MARV) = assay: organism not typed; conditions: Vero, 72 h, read-out: Percent viral inhibition MARV
[1] = test system: Chikungunya virus (CHIKV); assay: microbe, parasite or virus in culture; conditions: Chikungunya virus, Vero, 48 h, read-out: Percent viral inhibition CHKV

For CC(=O)NCC1CCN(Cc2cc(Oc3ccc(N)cn3)cc(-c3cc(Cl)cc(Cl)c3)c2)CC1 [Example 45, N-((1-((5-((5-aminopyridin-2-yl)oxy)-3′,5′-dichloro-[1,1′-biphenyl]-3-yl)methyl)piperidin-4-yl)methyl)acetamide], the inhibition at 1 µM (dengue virus (DENV)) was 0%, the inhibition at 1 µM (Marburg virus (MARV)) was 18.4% and the inhibition at 1 µM [1] was 0%.

CNC(=O)NCC1CCN(Cc2cc(Oc3cnc(N4CCN(CCCS(N)(=O)=O)CC4)nc3)nc(-c3cc(Cl)cc(Cl)c3)c2)CC1 [Example 48, 3-(4-(5-((6-(3,5-dichlorophenyl)-4-((4-((3-methylureido)methyl)piperidin-1-yl)methyl)pyridin-2-yl)oxy)pyrimidin-2-yl)piperazin-1-yl)propane-1-sulfonamide] was tested, and the inhibition at 1 µM (dengue virus (DENV)) was 26%, the inhibition at 1 µM (Marburg virus (MARV)) was 15.7% and the inhibition at 1 µM [1] was 15.2%.

With COC(=O)NCC1(F)CCN(Cc2cc(Oc3cnc(N4CCN(CCC(=O)O)CC4)nc3)nc(-c3cc(Cl)cc(Cl)c3)c2)CC1 [Example 51, 3-(4-(5-((6-(3,5-dichlorophenyl)-4-((4-fluoro-4-(((methoxycarbonyl)amino)methyl)piperidin-1-yl)methyl)pyridin-2-yl)oxy)pyrimidin-2-yl)piperazin-1-yl)propanoic acid] the inhibition at 1 µM (dengue virus (DENV)) was 56.7%, the inhibition at 1 µM (Marburg virus (MARV)) was 43.6% and the inhibition at 1 µM [1] was 21.1%.

Compound CN1CCN(c2ncc(Oc3cc(CN4CCC(CCO)CC4)cc(-c4cc(Cl)cc(Cl)c4)n3)cn2)CC1 [Example 52, 2-(1-((2-(3,5-dichlorophenyl)-6-((2-(4-methylpiperazin-1-yl)pyrimidin-5-yl)oxy)pyridin-4-yl)methyl)piperidin-4-yl)ethanol] has an inhibition at 1 µM (dengue virus (DENV)) of 45.6%, an inhibition at 1 µM (Marburg virus (MARV)) of 29.9% and an inhibition at 1 µM [1] of 26.3%.

In the case of CN1CCN(c2ncc(Oc3cc(CN4CCC(OCC(=O)O)CC4)cc(-c4cc(Cl)cc(Cl)c4)n3)cn2)CC1 [Example 53, 2-((1-((2-(3,5-dichlorophenyl)-6-((2-(4-methylpiperazin-1-yl)pyrimidin-5-yl)oxy)pyridin-4-yl)methyl)piperidin-4-yl)oxy)acetic acid], the inhibition at 1 µM (dengue virus (DENV)) is reported as 42.5%, the inhibition at 1 µM (Marburg virus (MARV)) is reported as 53.5% and the inhibition at 1 µM [1] is reported as 30%.

Compound NC(=O)OCCN1CCN(Cc2cc(Oc3cnc(N4CCN(CCC(=O)O)CC4)nc3)nc(-c3cc(Cl)cc(Cl)c3)c2)CC1 [Example 54, 3-(4-(5-((4-((4-(2-(carbamoyloxy)ethyl)piperazin-1-yl)methyl)-6-(3,5-dichlorophenyl)pyridin-2-yl)oxy)pyrimidin-2-yl)piperazin-1-yl)propanoic acid] has an inhibition at 1 µM (dengue virus (DENV)) of 70.5%, an inhibition at 1 µM (Marburg virus (MARV)) of 62.7% and an inhibition at 1 µM [1] of 36.8%.

With NC(=O)OCCN1CCN(Cc2cc(Oc3ccc(N4CCN(CCC(=O)O)CC4)nc3)nc(-c3cc(Cl)cc(Cl)c3)c2)CC1 [Example 55, 3-(4-(5-((4-((4-(2-(carbamoyloxy)ethyl)piperazin-1-yl)methyl)-6-(3,5-dichlorophenyl)pyridin-2-yl)oxy)pyridin-2-yl)piperazin-1-yl)propanoic acid] the inhibition at 1 µM (dengue virus (DENV)) was 3.58%, the inhibition at 1 µM (Marburg virus (MARV)) was 40.2% and the inhibition at 1 µM [1] was 16.8%.

Compound COC(=O)NCC1CCN(Cc2cc(Oc3cnc(N4CC5CCC(C4)N5CCC(=O)O)nc3)nc(-c3cc(Cl)cc(Cl)c3)c2)CC1 [Example 56, 3-(3-(5-((6-(3,5-dichlorophenyl)-4-((4-(((methoxycarbonyl)amino)methyl)piperidin-1-yl)methyl)pyridin-2-yl)oxy)pyrimidin-2-yl)-3,8-diazabicyclo[3.2.1]octan-8-yl) propanoic acid] has an inhibition at 1 µM (dengue virus (DENV)) of 57.1%, an inhibition at 1 µM (Marburg virus (MARV)) of 60.9% and an inhibition at 1 µM [1] of 31.3%.

In the case of CC(CCN1CCN(c2ncc(Oc3cc(CN4CCC(CCO)CC4)cc(-c4cc(Cl)cc(Cl)c4)n3)cn2)CC1)C(=O)O (stereo not drawn) [Example 57, 4-(4-(5-((6-(3,5-dichlorophenyl)-4-((4-(2-hydroxyethyl)piperidin-1-yl)methyl)pyridin-2-yl)oxy)pyrimidin-2-yl)piperazin-1-yl)-2-methylbutanoic acid], the inhibition at 1 µM (dengue virus (DENV)) is reported as 37.6%, the inhibition at 1 µM (Marburg virus (MARV)) is reported as 54.4% and the inhibition at 1 µM [1] is reported as 21.1%.

Compound CCC(=O)NCC1CCN(Cc2cc(Oc3cnc(N4CCN(CCC(C)C(=O)O)CC4)nc3)nc(-c3cc(Cl)cc(Cl)c3)c2)CC1 (stereo not drawn) [Example 59, 4-(4-(5-((6-(3,5-dichlorophenyl)-4-((4-(propionamidomethyl)piperidin-1-yl)methyl)pyridin-2-yl)oxy)pyrimidin-2-yl)piperazin-1-yl)-2-methylbutanoic acid] has an inhibition at 1 µM (dengue virus (DENV)) of 53.7%, an inhibition at 1 µM (Marburg virus (MARV)) of 57.5% and an inhibition at 1 µM [1] of 35.1%.

Compound CC(O)CCN1CCN(c2ncc(Oc3cc(CN4CCC(F)CC4)cc(-c4cc(Cl)cc(Cl)c4)n3)cn2)CC1 (stereo not drawn) [Example 60, 4-(4-(5-((6-(3,5-dichlorophenyl)-4-((4-fluoropiperidin-1-yl)methyl)pyridin-2-yl)oxy)pyrimidin-2-yl)piperazin-1-yl)butan-2-ol] has an inhibition at 1 µM (dengue virus (DENV)) of 79%, an inhibition at 1 µM (Marburg virus (MARV)) of 53.6% and an inhibition at 1 µM [1] of 38.8%.

Work on COC(=O)NCC1CCN(Cc2cc(Oc3cnc(N4CCN(CCC(=O)O)CC4)nc3)nc(-c3cc(Cl)cc(Cl)c3)c2)CC1 [Example 62, 3-(4-(5-((6-(3,5-dichlorophenyl)-4-((4-(((methoxycarbonyl)amino)methyl)piperidin-1-yl)methyl)pyridin-2-yl)oxy)pyrimidin-2-yl)piperazin-1-yl)propanoic acid] yielded an inhibition at 1 µM (dengue virus (DENV)) of 19.1%, an inhibition at 1 µM (Marburg virus (MARV)) of 19.9% and an inhibition at 1 µM [1] of 35.2%.

COC(=O)NCC1CCN(Cc2cc(Oc3cnc(N4CCN(C)CC4)nc3)nc(-c3cc(Cl)cc(Cl)c3)c2)CC1 [Example 63, methyl((1-((2-(3,5-dichlorophenyl)-6-((2-(4-methylpiperazin-1-yl)pyrimidin-5-yl)oxy)pyridin-4-yl)methyl)piperidin-4-yl)methyl)carbamate] showed an inhibition at 1 µM (dengue virus (DENV)) of 2.35%, an inhibition at 1 µM (Marburg virus (MARV)) of 14.7% and an inhibition at 1 µM [1] of 0%.

CC(=O)NCC1CCN(Cc2cc(Oc3cnc(N4CCN(C)CC4)nc3)nc(-c3cc(Cl)cc(Cl)c3)c2)CC1 [Example 64, N-((1-((2-(3,5-dichlorophenyl)-6-((2-(4-methylpiperazin-1-yl)pyrimidin-5-yl)oxy)pyridin-4-yl)methyl)piperidin-4-yl)methyl)acetamide] gave an inhibition at 1 µM (dengue virus (DENV)) of 37%, an inhibition at 1 µM (Marburg virus (MARV)) of 37.8% and an inhibition at 1 µM [1] of 6.9%.

CNC(=O)OCC1CCN(Cc2cc(Oc3cnc(N4CCN(C)CC4)nc3)nc(-c3cc(Cl)cc(Cl)c3)c2)CC1 [Example 66, (1-((2-(3,5-dichlorophenyl)-6-((2-(4-methylpiperazin-1-yl)pyrimidin-5-yl)oxy)pyridin-4-yl)methyl)piperidin-4-yl)methylmethylcarbamate] gave an inhibition at 1 µM (dengue virus (DENV)) of 57.9%, an inhibition at 1 µM (Marburg virus (MARV)) of 60.7% and an inhibition at 1 µM [1] of 7.64%.

Work on CNC(=O)NCC1CCN(Cc2cc(Oc3cnc(N4CCN(C)CC4)nc3)nc(-c3cc(Cl)cc(Cl)c3)c2)CC1 [Example 70, 1-((1-((2-(3,5-dichlorophenyl)-6-((2-(4-methylpiperazin-1-yl)pyrimidin-5-yl)oxy)pyridin-4-yl)methyl)piperidin-4-yl)methyl)-3-methylurea] yielded an inhibition at 1 µM (dengue virus (DENV)) of 0%, an inhibition at 1 µM (Marburg virus (MARV)) of 5.52% and an inhibition at 1 µM [1] of 0%.

Work on CN1CCN(c2ncc(Oc3cc(CN4CCC(Cc5nnn[nH]5)CC4)cc(-c4cc(Cl)cc(Cl)c4)n3)cn2)CC1 [Example 72, 5-((4-((4-((1H-tetrazol-5-yl)methyl)piperidin-1-yl)methyl)-6-(3,5-dichlorophenyl)pyridin-2-yl)oxy)-2-(4-methylpiperazin-1-yl)pyrimidine] yielded an inhibition at 1 µM (dengue virus (DENV)) of 11.2%, an inhibition at 1 µM (Marburg virus (MARV)) of 55.8% and an inhibition at 1 µM [1] of 33.7%.
